Patent publication US9981916B2 (Genentech, Inc., priority 2013, dated 2018)
pIC50: −log10 of the molar value.

Biological target: T1, RORc ligand binding domain (Homo sapiens, UniProt P51449)
T1 construct: host or cells: E. coli
T1 sequence (P51449 269-508 limits assumed): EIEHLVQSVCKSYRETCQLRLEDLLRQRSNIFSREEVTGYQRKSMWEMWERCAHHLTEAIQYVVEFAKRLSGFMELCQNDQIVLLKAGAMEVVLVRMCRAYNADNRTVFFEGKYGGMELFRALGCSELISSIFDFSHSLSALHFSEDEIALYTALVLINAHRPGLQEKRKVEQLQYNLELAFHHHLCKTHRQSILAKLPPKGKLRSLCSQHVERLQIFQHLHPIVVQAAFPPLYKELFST
Test: In vitro RORc ligand binding assay (25-[3H]hydroxycholesterol displacement, filter binding)
Details: 6 nM 25-[3H]hydroxycholesterol, 0.6 ug/mL RORc receptor, 3 h at 25° C.
Description: Example 17: In Vitro RORc Ligand Binding Assay
This assay was used to determine a compound's potency in inhibiting activity of RORc by determining, Kiapp, IC50, or percent inhibition values.
On day of the assay, 100 uL of 0.05% CHAPS (in deionized H2O) was added to all wells of the GFB Unifilter plate and allowed soak for 1 h. A wash buffer of 50 mM HEPES (pH 7.4), 150 mM NaCl, and 5 mM MgCl2 was prepared to wash the filter plate. To prepare an assay buffer, BSA was added to the wash buffer to reach 0.01% and DTT was added to reach 1 mM.
For IC50 mode, 10 mM compound stocks were serially diluted in DMSO with DMSO to give 20× required final concentration in DMSO (15 uL compound+30 uL DMSO). The 20× compound stocks were diluted in DMSO with Assay Buffer 4-fold to reach 5× the final test concentration in 25% DMSO (10 uL compound+30 uL Assay Buffer). Solutions were mixed by aspiration several times with a pipette set on 50 uL volume. For the assay, 10 uL of 5× compound stock solutions in 25% DMSO were added to the assay plate in duplicate.
For two point screening, 10 mM stock compound solutions were diluted in DMSO to obtain 200 uM (20× the high test concentration) and then diluted 10-fold further to reach 20 uM (20× the low test concentration). The 20× stocks were diluted 4-fold with Assay Buffer (10 uL compound+30 uL Assay Buffer) to reach 5× the test concentrations (50 uM and 5 uM) and 10 uL were added to two assay plates for the duplicate wells. With each concentration tested on 2 plates, each set of 80 compounds used 4 assay plates (1 uM and 10 uM, with n=2).
25-hydroxycholesterol (1 uM) was used to determine the level of NSB signal is prepared in DMSO as for compounds above, then diluted in Assay Buffer to give a final concentration of 5 uM. For 25-hydroxycholesterol in 25% DMSO/75% Assay Buffer; 10 uL per well was used for NSB samples. Wells for Total Binding and No Receptor sample determination contained 10 uL of 25% DMSO/75% Assay Buffer per well.
25-[^3H]hydroxycholesterol was diluted in Assay Buffer to obtain 15 nM and vortex to mix. Add 20 uL to all wells to reach 6 nM final concentration in the assay.
Stock receptor solution was diluted in assay buffer to obtain 1.5 ug/mL in Assay Buffer. 20 uL was added to all wells. For No Receptor samples, 20 uL Assay Buffer was substituted for receptor solution.
Assay plates were 96-well polypropylene V-bottom plates. 10 uL of 5× compound in 25% DMSO/75% Assay Buffer was added to Test wells. 10 uL of 25% DMSO/75% Assay Buffer was added to Total Binding or No Receptor wells. 10 uL of 5 uM 25-hydroxycholesterol in 25% DMSO/75% Assay Buffer was added to NSB wells. 20 uL of 15 nM 25-[^3H]hydroxycholesterol prepared in Assay Buffer was added to all wells. 20 uL of 1.5 ug/mL RORc receptor was added to wells (or […] Assay Buffer to No R wells). Following addition to the wells, the plates were incubated 3 h at 25° C.
Using a Packard Filtermate Harvester, the filter plate were washed 4 times following transfer of the incubated samples. Plates were dry-filtered completely (2 h at 50° C. or overnight at room temperature). 50 uL Microscint 0 was added to all wells and read on Topcount protocol Inverted.
Final concentrations were as follows: 50 mM HEPES buffer (pH 7.4); 150 mM NaCl; 1 mM DTT; 5 mM MgCl2; 0.01% BSA; 5% DMSO; 0.6 ug/mL RORc receptor; 6 nM 25-[^3H]hydroxycholesterol. For NSB wells, 1 uM 25-hydroxycholesterol was also present.

SMILES | pIC50
CC(=O)OCC1(C)[C@@H]2CC[C@@]1(C)c1nnc(-c3ccccc3F)cc12 (some centres unmarked) | 5.61
CC1(C)[C@H]2CC[C@]1(Cc1nnc(CO)o1)c1nnc(-c3c(F)cccc3F)cc12 (stereo in doubt) [Example 76, (5-{[(5R,8R)-3-(2,6-difluorophenyl)-9,9-dimethyl-6,7-dihydro-5,8-methanocinnolin-8(5H)-yl]methyl}-1,3,4-oxadiazol-2-yl)methanol] | 6.41
CC1(C)[C@H]2CC[C@]1(C(=O)Nc1ccc(C#N)nc1)c1nnc(-c3ccccc3F)cc12 (stereo in doubt) [Example 169, (5R,8R)-N-(6-cyanopyridin-3-yl)-3-(2-fluorophenyl)-9,9-dimethyl-5,6,7,8-tetrahydro-5,8-methanocinnoline-8-carboxamide] | 5.49
CC1(C)[C@H]2CC[C@]1(C(=O)N1CCc3cc(S(C)(=O)=O)ccc31)c1nnc(-c3ccccc3F)cc12 (stereo in doubt) [Example 170, ((5R,8R)-3-(2-fluorophenyl)-9,9-dimethyl-5,6,7,8-tetrahydro-5,8-methanocinnolin-8-yl)(5-(methylsulfonyl)indolin-1-yl)methanone] | 5.41
CC1(C)[C@@H]2CC[C@@]1(C(=O)N1CCCC1CO)c1nnc(-c3c(F)cccc3F)cc12 (stereo in doubt) [Example 215, ((5S,8S)-3-(2,6-difluorophenyl)-9,9-dimethyl-5,6,7,8-tetrahydro-5,8-methanocinnolin-8-yl) ((R)-2-(hydroxymethyl)pyrrolidin-1-yl)methanone] | 5.95
CC1(C)C2CCC1(C(=O)N1CC(N3CC[C@H](F)C3)C1)c1nnc(-c3c(F)cccc3F)cc12 (stereo in doubt) [Example 248, ((5S,8S)-3-(2,6-difluorophenyl)-9,9-dimethyl-5,6,7,8-tetrahydro-5,8-methanocinnolin-8-yl)(3-((S)-3-fluoropyrrolidin-1-yl)azetidin-1-yl) methanone] | 6.41
CC1(C)[C@H]2CC[C@]1(C)c1nnc(-c3c(F)cccc3F)cc12 [Example 1, (5R,8S)-3-(2,6-Difluorophenyl)-8,9,9-trimethyl-5,6,7,8-tetrahydro-5,8-methanocinnoline] | 6.94
CC(=O)OC[C@]12CC[C@H](c3cc(-c4ccccc4F)nnc31)C2(C)C [Example 12] | 7.35
CC1(C)[C@@H]2CC[C@@]1(CC#N)c1nnc(-c3ccccc3F)cc12 [Example 16] | 5.81
CC1(C)[C@@H]2CC[C@@]1(Cn1ccnc1)c1nnc(-c3ccccc3F)cc12 [Example 17, (5S,8R)-3-(2-fluorophenyl)-8-(1H-imidazol-1-ylmethyl)-9,9-dimethyl-5,6,7,8-tetrahydro-5,8-methanocinnoline] | 5.50
CC1(C)[C@@H]2CC[C@@]1(CN1CCCC1=O)c1nnc(-c3ccccc3F)cc12 [Example 18, 1-{[(5S,8R)-3-(2-fluorophenyl)-9,9-dimethyl-6,7-dihydro-5,8-methanocinnolin-8(5H)-yl]methyl}pyrrolidin-2-one] | 5.32
CC(=O)O[C@H]1C[C@@H]2c3cc(-c4ccccc4F)nnc3[C@@]1(C)C2(C)C [Example 19, (5S,7S,8R)-3-(2-fluorophenyl)-8,9,9-trimethyl-5,6,7,8-tetrahydro-5,8-methanocinnolin-7-yl acetate] | 6.17
CC(=O)O[C@@H]1C[C@H]2c3cc(-c4ccccc4F)nnc3[C@]1(C)C2(C)C [Example 20, (5R,7R,8S)-3-(2-fluorophenyl)-8,9,9-trimethyl-5,6,7,8-tetrahydro-5,8-methanocinnolin-7-yl acetate] | 5.92
CC1(C)[C@@H]2CC[C@@]1(COCc1ccccc1)c1nnc(-c3c(F)cccc3Cl)cc12 [Example 21, (5S,8S)-8-[(benzyloxy)methyl]-3-(2-chloro-6-fluorohenyl)-9,9-dimethyl-5,6,7,8-tetrahydro-5,8-methanocinnoline] | 7.66
CC(=O)OC[C@]12CC[C@H](c3cc(-c4c(F)cccc4Cl)nnc31)C2(C)C [Example 22, [(5S,8S)-3-(2-chloro-6-fluorophenyl)-9,9-dimethyl-6,7-dihydro-5,8-methanocinnolin-8(5H)-yl]methyl acetate] | 7.82
CC1(C)[C@@H]2CC[C@@]1(CO)c1nnc(-c3c(F)cccc3Cl)cc12 [Example 23, [(5S,8S)-3-(2-chloro-6-fluorophenyl)-9,9-dimethyl-6,7-dihydro-5,8-methanocinnolin-8(5H)-yl]methanol] | 6.42
COC[C@]12CC[C@H](c3cc(-c4c(F)cccc4Cl)nnc31)C2(C)C [Example 24, (5S,8S)-3-(2-chloro-6-fluorophenyl)-8-(methoxymethyl)-9,9-dimethyl-5,6,7,8-tetrahydro-5,8-methanocinnoline] | 7.35
CCOC[C@]12CC[C@H](c3cc(-c4ccccc4F)nnc31)C2(C)C [Example 25, (5S,8S)-8-(ethoxymethyl)-3-(2-fluorophenyl)-9,9-dimethyl-5,6,7,8-tetrahydro-5,8-methanocinnoline] | 6.86
COCCOC[C@]12CC[C@H](c3cc(-c4ccccc4F)nnc31)C2(C)C [Example 26, (5S,8S)-3-(2-fluorophenyl)-8-[(2-methoxyethoxy)methyl]-9,9-dimethyl-5,6,7,8-tetrahydro-5,8-methanocinnoline] | 6.10
CC1(C)[C@@H]2CC[C@@]1(Cn1cccn1)c1nnc(-c3ccccc3F)cc12 [Example 27, (5S,8R)-3-(2-fluorophenyl)-9,9-dimethyl-8-(1H-pyrazol-1-ylmethyl)-5,6,7,8-tetrahydro-5,8-methanocinnoline] | 6.44
COC[C@@]12CC[C@@H](c3cc(-c4ccccc4F)nnc31)C2(C)C [Example 28, (5R,8R)-3-(2-fluorophenyl)-8-(methoxymethyl)-9,9-dimethyl-5,6,7,8-tetrahydro-5,8-methanocinnoline] | 6.68
COC[C@@]12CC[C@@H](c3cc(-c4c(F)cccc4Cl)nnc31)C2(C)C [Example 29, (5R,8R)-3-(2-chloro-6-fluorophenyl)-8-(methoxymethyl)-9,9-dimethyl-5,6,7,8-tetrahydro-5,8-methanocinnoline] | 7.39
COC[C@@]12CC[C@@H](c3cc(-c4c(F)cccc4F)nnc31)C2(C)C [Example 30, (5R,8R)-3-(2,6-difluorophenyl)-8-(methoxymethyl)-9,9-dimethyl-5,6,7,8-tetrahydro-5,8-methanocinnoline] | 7.35
CC1(C)[C@H]2C[C@@H](F)[C@]1(C)c1nnc(-c3ccccc3F)cc12 [Example 31, (5R,7R,8S)-7-fluoro-3-(2-fluorophenyl)-8,9,9-trimethyl-5,6,7,8-tetrahydro-5,8-methanocinnoline] | 5.67
CC1(C)[C@@H]2C[C@H](F)[C@@]1(C)c1nnc(-c3ccccc3F)cc12 [Example 32, (5S,7S,8R)-7-fluoro-3-(2-fluorophenyl)-8,9,9-trimethyl-5,6,7,8-tetrahydro-5,8-methanocinnoline] | 6.01
Cc1c(-c2ccccc2F)nnc2c1[C@H]1CC[C@]2(C)C1(C)C [Example 33, (5S,8R)-3-(2-fluorophenyl)-4,8,9,9-tetramethyl-5,6,7,8-tetrahydro-5,8-methanocinnoline] | 5.91
